Source: patent US20090186024A1, “Gene Expression Signatures for Oncogenic Pathway Deregulation” (priority 2005, published 2009)

Tested on: breast cancer cell lines
Assay: Cell proliferation assays (growth inhibition, standard MTT/MTS colorimetric assay)
Type: cell-based
Conditions: 96 hrs, versus DMSO controls, FIG. 4B
Procedure: FIGS. 4A-4B show pathway deregulation in breast cancer cell lines predicts drug sensitivity. A. Pathway predictions in breast cancer cell lines. The results plotted show images of the predicted probability of pathway activation (red indicates high probability, blue indicates low probability). B. Sensitivity to pathway-specific drugs. Left panel. Cells were treated with 3.75 μM of farnesyltransferase inhibitor (L-744,832) for 96 hrs. Proliferation was assayed using a standard MTS tetrazolium colorimetric method. The degree of proliferation inhibition was plotted as a function of probability of Ras pathway activation as determined in panel A. Middle panel. Same as in left panel but using farnesylthiosalicylic acid (200 μM). Right panel. Same as in left panel but using the Src pathway inhibitor SU6656 (1.5 μM), and with the degree of proliferation inhibition plotted as a function of Src pathway activation. […]
Cell and RNA preparation. […] Expression of oncogenes and their secondary targets was determined by a standard Western Blotting protocol using a TGH lysis buffer (1% Triton X-100, 10% glycerol, 50 mM NaCl, 50 mM Hepes, pH 7.3, 5 mM EDTA, 1 mM sodium orthovanadate, 1 mM PMSF, 10 μg/ml leupeptine, 10 μg/ml aprotinin). […] Protein quantitation of lysates was determined by BCA [Pierce] prior to electrophoresis with a 10-12% SDS-PAGE gel. Activation status of kinase pathways for the breast cancer cell lines was determined for growing cells (at 75% confluency) 48 hours after plating using the following methods. Ras activation is measured using a Ras Activation Assay Kit (Upstate Biotechnology) that consists of a GST fusion-protein corresponding to the human Ras Binding Domain (RBD, residues 1-149) of Raf-1. […] Western Blotting for immunoprecipitated H/K-Ras is detected using an H/K-Ras specific antibody (Santa Cruz Biotechnology, #sc-520 and sc-F234). c-Src activation was determined by Western Blotting using a phospho-Tyr416 Src antibody (Cell Signaling, #2101). […]

Row | Compound | relation between probability of Ras pathway deregulation (gene expression prediction) and extent of cell proliferation inhibition by the drug | relation between probability of Src pathway deregulation (gene expression prediction) and extent of cell proliferation inhibition by the drug
1 | CC(C)=CCCC(C)=CCCC(C)=CCSc1ccccc1C(=O)O [FTS, farnesylthiosalicylic acid] | close concordance and correlation | 
2 | CC[C@H](C)[C@@H](CO[C@@H](Cc1ccccc1)C(=O)N[C@@H](CCS(C)(=O)=O)C(=O)OC(C)C)NC[C@@H](N)CS [L-744,832] | close concordance and correlation | 
3 | CN(C)S(=O)(=O)c1ccc2c(c1)/C(=C/c1cc3c([nH]1)CCCC3)C(=O)N2 [SU6656] |  | close concordance and correlation
